Measurements from patent US20110144125A1, “Anti-Arrhythmia Agents, Methods of Their Use, Methods of Their Identification and Kits Therefore” (THE UAB RESEARCH FOUNDATION, priority 2008, published 2011).
Where a name gives a salt, the structure may show the parent alone.

Assays:
[1] = tested on: rat left atrial appendage; experiment: 2-APB-induced spontaneous mechanical activity (SMA/SMEs) in isolated superfused rat left atria / left atrial appendage; details: 0.1 Hz paced, 15 μM 2-APB, titration after appearance of SMA
Procedure: (§1) Left atria were isolated from male Sprague-Dawley rats (325 to 400 g) under IP pentobarbital anesthesia (0.1 g/kg). Isolated left atria were superfused at 30° C. in Krebs-Henseleit (KH) buffer of the following mM composition: NaCl, 118; NaHCO3, 27; KCl, 4.8; MgSO4, 1.2; KH2PO4, 1.0; CaCl2, 1.8; and glucose, 11.1. Nearly isometric left atrial forces of contraction were measured as described.
Isolated superfused left atria were paced at 3 Hz. 2-APB was added to atrial superfusates from 0.015 or 0.15M DMSO stock solutions to achieve concentrations of 0, 2, 7.5, 15, or 22 μM (n=5 to 10 atria per concentration). Changes in atrial mechanical force were recorded during a subsequent 15 min superfusion.
Two groups of 5 to 6, 3 Hz paced atria were superfused in KH and exposed to 0 or 15 μM 2-APB for 10 min. The pacing stimulus was interrupted for 5 min and the number of spontaneous mechanical events (SMEs), defined as increases in mechanical force occurring in the absence of pacing, were measured as was the postrest potentiation response (PRP).
To determine whether diastolic interval affected the interaction between 2-APB and left atria, atrial pacing was decreased to 0.1 Hz, and 0, 7.5, or 22 μM 2-APB was added to the superfusate (n=6-8 per group). Superfusions continued for 15 min, and changes in atrial mechanical function were observed.
To establish whether SMA was reversible, atria (n=7) were paced at 0.1 Hz, exposed to 15 μM 2-APB for 10 min, and washed with KH. The effect of removing 2-APB on atrial mechanical function was recorded.
To test whether an anion transport inhibitor affected SMA, atria (n=7) were paced at 0.1 Hz in KH and exposed to 15 μM 2-APB. Following the appearance of SMA, they were titrated with 100 to 400 μM DIDS for 3 to 5 min at each concentration. Whether SMA occurred at the end of each titration period was recorded.
(§2) Left atria (n=10 per group) were paced at 0.1 Hz and treated with (i) 20 μM 2-APB for 10 min, (ii) with 30 nM isoproterenol for 5 min followed by 20 μM 2-APB for 10 min, and (iii) with 3 μM forskolin for 5 min followed by 20 μM 2-APB for 10 min.
The appendages then were titrated with increasing concentrations of 2-APB, and SMA was measured and recorded.
(§3) To determine the anti-arrhythmic activity of gossypol, isolated rat left atrial appendage and right ventricular muscle strips were used as model systems, as described above. Heart muscle was exposed to 20 μM 2-APB for 10 min to induce SMA, and rates of SMA were recorded as a percentage of initial SMA. The muscles then were titrated with up to 5 increasing concentrations of gossypol. Rates of SMA were recorded ˜10 min after the addition of concentration of the polyphenol.
To determine whether EGCG can prevent arrhythmia, rat left atrial appendages (n=9) were exposed to 20 μM 2-APB and rates of SMA were recorded. Groups of muscles (n=6 per) were pre-treated with 30 μM EGCG for 10 min following which they were exposed to 2-APB. Rates of SMA were recorded 10 min later.
as §3, with “whether EGCG is effective to reverse arrhythmia,” for “the anti-arrhythmic activity of gossypol,”, “Rat left atrial appendages were” for “Heart muscle was”, “left atrial appendages” for “muscles”, “the following polyphenols: EGCG, gossypol, resveratrol, and quercetin.” for “gossypol.”
To determine whether EGC can prevent arrhythmia, left atrial appendages (n=9) were exposed to 20 μM 2-APB and rates of SMA were recorded. Groups of appendages (n=6 per) were pre-treated with 30 μM EGC for 10 min following which they were exposed to 2-APB.

rat left atria [2] = experiment: Left atrial force of contraction / post-rest potentiation maximum force
Procedure: as §1
The initial potentiated beat following prolonged rest (i.e., the PRP maximum force of contraction) reflects activator calcium available for SR release. The PRP response was used to obtain an indirect measure of left atrial SR calcium under our conditions.
Left atria (n=6) were superfused in KH, paced at 0.1 Hz, and subjected to PRP. Superfusion proceeded for another 35 min, and a second PRP was performed. These 2 forces were compared to assure the mechanical stability of our preparations.
One group (n=8) was superfused in KH, paced at 0.1 Hz, and their maximum force of contraction was measured. These atria were washed with KH containing 82 mM sodium, and a second PRP was performed 23 min later.
A second group (n=8) was paced at 0.1 Hz in KH and subjected to PRP. They were exposed to 22 μM 2-APB and, after the appearance of SMA, were washed with KH containing 22 μM 2-APB and 82 mM sodium. Superfusion continued for 23 min and a second PRP was performed.
Control 0.1 Hz paced atria (n=8) were subjected to PRP and exposed to 400 μM DIDS, and a second PRP was performed 23 min later.
A group of atria (n=8) were paced at 0.1 Hz in KH and subjected to PRP. They were exposed to 22 μM 2-APB, 400 μM DIDS was added to the superfusate after the appearance of SMA, and a second PRP was performed 23 min later.
(§4) Left atria (n=8 per group) were paced at 3 Hz and (i) titrated with 0 to 30 nM isoproterenol (Ahlquist, 1970) or (ii) exposed to 3 μM forskolin (Laurenza et al., 1980). Left atrial force and frequency of contraction, the time to peak tension and relaxation times were recorded after a 3-5 min exposure to forskolin or to any concentration of isoproterenol. The 3 Hz pacing stimulus was interrupted at the end of these protocols to measure SMEs.
(§5) Left atria (n=6 per group) were paced at 3 Hz, titrated with 0 to 300 nM (−)BayK 8644 ([…]-1,4-Dihydro-2,6-dimethyl-5-nitro-4-[2-(trifluormethyl)phenyl]-3-pyridinecarboxylic acid methyl ester; Franckowiak et al. 1985) or FPL-64176 ((2,5-Dimethyl-4-[2-(phenylmethyl)benzoyl]-111-pyrrole-3-carboxylic acid methyl ester; Zheng et al., 1991) and their mechanical function and rates of SMA were recorded after a 5 min exposure to any concentration of slow calcium channel activator.
(§6) To test whether ryanodine receptor calcium leak produces SMA, left atria (n=6 per group) were paced at 0.1 Hz, treated with 0 or 300 nM BayK 8644 for 5 min, and then exposed to 600 nM ryanodine (Sutko et al., 1997). Atrial mechanical function and rates of SMA were recorded 20 min after exposure to ryanodine.
(§7) Left atria (n=7) were paced at 3 Hz, treated with 120 μM ouabain (Illanes and Marshall, 1964), and any change in mechanical function was recorded at a new steady state, ˜10 min later. These atria were exposed to 20 μM 2-APB and their mechanical function and rates of SMA were recorded 10 min later.
To test whether zatebradine affects left atrial force of contraction, two groups of left atria (n=9 per group) were paced at 3 Hz and treated with 300 nM BayK 8644. Five minutes later one group was incubated with six increasing concentrations of zatebradine (10-100 μM) for 3-5 min at each concentration, and forces of contraction were recorded. A second group was treated with BayK 8644 but not zatebradine, and forces of contraction were recorded at corresponding times.

rat left atria [3] = experiment: Spontaneous tachycardic activity (STA) in isolated rat left atria exposed to 2-APB under increased calcium load; details: for effect of If inhibitor on left atrial STA: BayK 8644 and 2-APB, zatebradine 70 μM, ZD-7288 titration to 100 μM
Procedure: (§8) Male Sprague-Dawley rats (325-400 g) were anesthetized with intra-peritoneal pentobarbital (0.1 g/kg). Their right and left atria were isolated, superfused at 30° C. in Krebs-Henseleit buffer, and nearly isometric forces of contraction were measured from these muscles (Wolkowicz et al., 2002). 2-APB was prepared as a 150 mM dimethyl sulfoxide stock.
as §4, §2
Left atrial contraction and relaxation times were recorded at these five times, the pacing stimulus was stopped and rates of SMA were recorded. To determine whether initial pacing rate affects left atrial response to 2-APB and isoproterenol, left atria (n=5-7 per group) were paced at 3 Hz and (i) remained untreated for 15 min, (ii) were treated with 20 μM 2-APB alone for 10 min, or (ii) were treated with 30 nM isoproterenol for 5 min followed by 20 μM 2-APB for 10 min. Atrial mechanical function was measured at these four times; the pacing stimulus then was stopped and rates of SMA were recorded.
as §5
Left atria (n=8 per group) were paced at 0.1 Hz, exposed to 300 nM BayK 8644 or FPL-64176 for 5 min followed by 20 μM 2-APB for 10 min. Atrial mechanical function was recorded at this time; the pacing stimulus then was stopped and rates of SMA were recorded.
as §6
Rates of SMA were measured 5 min later.
as §7
3 Hz-paced left atria (n=9 per group) were superfused (i) in Krebs-Henseleit alone or (ii) they were treated with 20 μM 2-APB for 10 min, (iii) with 300 nM BayK 8644 for 10 min and with 20 μM 2-APB for 10 min, or (iv) they were treated with 300 nM BayK 8644 and 20 μM 2-APB for 10 min, then with 70 μM zatebradine (3-[3-[[2-(3,4-Dimethoxyphenyl)ethyl]methylamino] propyl]-1,3,4,5-tetrahydro-7,8,-dimethoxy-2H-3-benzazepin-2-one hydrochloride) for 10 min (Baruscotti et al., 2005). Pacing was interrupted at these times and rates of SMA were recorded.

rat right atria = experiment: Right atrial spontaneous (pacemaker-driven) contraction frequency
Procedure: as §8
Left atria (n=9) were paced at 0.1 Hz, treated with 300 nM BayK 8644 for 5 min, then with 20 μM 2-APB for 10 min, and the pacing stimulus was stopped. These preparations then were incubated with six increasing concentrations of zatebradine (10-100 μM) for 3-5 min at each concentration, and rates of SMA were recorded. Untreated right atria (n=9) also were titrated with zatebradine and its effect on contraction frequency was recorded.
To test whether zatebradine affects the SMA occurring in the presence of 2-APB and isoproterenol, left atria (n=7) were paced at 0.1 Hz, treated with 30 nM isoproterenol for 5 min, then with 20 μM 2-APB for 10 min, and the pacing stimulus was stopped. Rates of SMA were recorded, these left atria were exposed to 70 μM zatebradine for 10 min, and rates of SMA were recorded again. A group of right atria (n=7) also were exposed to 30 nM isoproterenol for 5 min and then to 70 μM zatebradine for 10 min. Right atrial contraction frequency was recorded at these two times.
To test whether ZD-7288 (4-Ethylphenyl amino-1,2-dimethyl-6-methylaminopyridinium chloride), an If inhibitor structurally unrelated to zatebradine (Baruscotti et al., 2005; Sanders et al., 2006) affects the SMA occurring in the presence of 2-APB and BayK 8644, rat left atria (n=7) were treated with 300 nM BayK 8644 for 5 min, then with 20 μM 2-APB for 10 min, and the rates of SMA were recorded. These atria then were incubated with six increasing concentrations of ZD-7288 (10-100 μM) for 3-5 min at each concentration, and the rates of SMA were recorded. Right atria (n=7) were titrated similarly with ZD-7288 (0-100 μM) and the change in their contraction frequency was recorded.

IC50 (rat left atria [3]; Rattus norvegicus, intact left atria exposed to BayK 8644 and 2-APB, read-out: IC50 for decrease of STA) [µM] | IC50 (rat right atria; Rattus norvegicus, untreated right atria titrated with zatebradine, read-out: IC50 for decrease of right atrial contraction frequency) [µM] | Structure (SMILES) | DIDS concentration that reversed SMA completely [1] [µM] | maximum forces of left atrial contraction, beginning vs end of 35-min superfusion (rat left atria [2]; 400 μM DIDS alone, no 2-APB) | effect of If inhibitor on left atrial STA (rat left atria [3]) | effect on right atrial contraction frequency (rat right atria; ZD-7288 titration 0-100 μM) | rate of appendage STA (rat left atria [3]; isoproterenol+2-APB+70 μM zatebradine) [contractions/min] | right atrial contraction frequency (rat right atria; isoproterenol+70 μM zatebradine) [contractions/min] | maximum decrease of right atrial contraction frequency (rat right atria; zatebradine titration) [%] | left atrial force of contraction (rat left atria [2]; 3 Hz paced, 300 nM BayK 8644, titrated with 10-100 μM zatebradine)
– | – | O=S(=O)(O)c1cc(N=C=S)ccc1C=Cc1ccc(N=C=S)cc1S(=O)(=O)O [DIDS, 4,4′-diisothiocyanatostilbene-2,2′-disulfonic acid] | > 300 | not different | – | – | – | – | – | –
– | – | CCN(c1ccccc1)c1cc(NC)[n+](C)c(C)n1.[Cl-] [ZD-7288] | – | – | decreases left atrial STA | decreases right atrial contraction frequency less robustly than zatebradine | – | – | – | –
58 ± 5 | 12 ± 1.1 | COc1ccc(CCN(C)CCCN2CCc3cc(OC)c(OC)cc3CC2=O)cc1OC [zatebradine, 3-[3-[[2-(3,4-Dimethoxyphenyl)ethyl]methylamino]propyl]-1,3,4,5-tetrahydro-7,8,-dimethoxy-2H-3-benzazepin-2-one hydrochloride] | – | – | significantly decreases | – | 110±24.5 | 212±9.7 | ~50 | 95±3.8 % of initial force
